Molecules are shown by their SMILES. pIC50: −log10 of the molar value.

In this experiment the target is PDE1A (Homo sapiens, UniProt P54750). Kind of experiment: PDE1A dose response, Cyclic Nucleotide Phosphodiesterase Assay Kit from Biomol (colorimetric). The note with it: purified PDE1A enzyme, 100 μM cAMP. The experiment is classed as biochemical. The method, boiled down: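 Purified PDE1A hydrolysed 100 μM cAMP with 5′-nucleotidase in Tris 20 mM pH 7.4 with calmodulin, Ca2+, Mg2+, 45 min at 37° C. Released phosphate read by malachite-green absorbance at 615 nm. Duplicate 8-point 1/3 dilutions from 20 μM, 1% DMSO; 10 μM vardenafil defined 100% inhibition.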
In general, pIC50 refers to the IC50 on a negative log10 scale, so that one unit is a factor of ten. A higher pIC50 goes with a small IC50. In turn, `COc1ccc(OC)c(S(=O)(=O)N2CCCC(c3nc4c(cnn4C4CCCCC4)c(=O)[nH]3)C2)c1` (centres unmarked) [Example 63, 1-cyclohexyl-6-(1-(2,5-dimethoxyphenylsulfonyl)piperidin-3-yl)-1H-pyrazolo[3,4-d]pyrimidin-4(5H)-one] had a pIC50 of 6.30 to 7.00.

For the molecule `CC(C)(C)n1ncc2c(=O)[nH]c(C3CN(CC(=O)Nc4ccccc4)C3)nc21` [Example 173, 2-(3-(1-tert-Butyl-4-oxo-4,5-dihydro-1H-pyrazolo[3,4-d]pyrimidin-6-yl)azetidin-1-yl)-N-phenylacetamide], the pIC50 is 6.30 to 7.00.

`Cc1nn(-c2ccccc2)c2nc(C3CCCN(C(=O)c4ccc(N(C)C)cc4)C3)[nH]c(=O)c12` (centres unmarked) [Example 80, 6-(1-(4-(dimethylamino)benzoyl)piperidin-3-yl)-3-methyl-1-phenyl-1H-pyrazolo[3,4-d]pyrimidin-4(5H)-one] showed a pIC50 of 6.00 to 6.30.

For the molecule `O=C(NCC1CCCCC1)N1CC(c2nc3c(cnn3C3CCCCC3)c(=O)[nH]2)C1` [Example 5, 3-(1-cyclohexyl-4-oxo-4,5-dihydro-1H-pyrazolo[3,4-d]pyrimidin-6-yl)-N-(cyclohexylmethyl)azetidine-1-carboxamide], the negative-log IC50 (pIC50) is 7.00 to 9.00.

`Cc1nn(C2CCCCC2)c2nc(C3CCCN(C(=O)Oc4ccccc4)C3)[nH]c(=O)c12` (centres unmarked) [Example 124, phenyl 3-(1-cyclohexyl-3-methyl-4-oxo-4,5-dihydro-1H-pyrazolo[3,4-d]pyrimidin-6-yl)piperidine-1-carboxylate] gave a pIC50 of 6.00 to 6.30.

`N#Cc1ccc(NC(=O)N2CC(c3nc4c(cnn4C4CCCCC4)c(=O)[nH]3)C2)cc1` [Example 33, N-(4-cyanophenyl)-3-(1-cyclohexyl-4-oxo-4,5-dihydro-1H-pyrazolo[3,4-d]pyrimidin-6-yl)azetidine-1-carboxamide] had a pIC50 of 7.00 to 9.00.

Consider `Cc1cc(N2CC(c3nc4c(cnn4C4CCCCC4)c(=O)[nH]3)C2)ccc1[N+](=O)[O-]` [Example 149, 1-cyclohexyl-6-(1-(3-methyl-4-nitrophenyl)azetidin-3-yl)-1H-pyrazolo[3,4-d]pyrimidin-4(5H)-one], for which the pIC50 was 7.00 to 9.00.

Consider `COc1ccc(S(=O)(=O)N2CCCC(c3nc4c(cnn4-c4ccccc4)c(=O)[nH]3)C2)cc1` (centres unmarked) [Example 46, 6-(1-(4-methoxyphenylsulfonyl)piperidin-3-yl)-1-phenyl-1H-pyrazolo[3,4-d]pyrimidin-4(5H)-one], for which the pIC50 was 6.30 to 7.00.

As for `O=C(NCCC(F)(F)F)N1CC(c2nc3c(cnn3C3CCCCC3)c(=O)[nH]2)C1` [Example 43, 3-(1-cyclohexyl-4-oxo-4,5-dihydro-1H-pyrazolo[3,4-d]pyrimidin-6-yl)-N-(3,3,3-trifluoropropyl)azetidine-1-carboxamide], the pIC50 was 7.00 to 9.00.

In turn, `Cc1nn(C(C)(C)C)c2nc(C3CN(C(=O)NCc4ccc(F)cc4)C3)[nH]c(=O)c12` [Example 17, 3-(1-tert-butyl-3-methyl-4-oxo-4,5-dihydro-1H-pyrazolo[3,4-d]pyrimidin-6-yl)-N-(4-fluorobenzyl)azetidine-1-carboxamide] showed a pIC50 of 7.00 to 9.00.

`CC(=O)c1ccccc1N1CC(c2nc3c(cnn3C3CCCCC3)c(=O)[nH]2)C1` [Example 151, 6-(1-(2-acetoylphenyl)azetidin-3-yl)-1-cyclohexyl-1H-pyrazolo[3,4-d]pyrimidin-4(5H)-one] showed a pIC50 of 6.30 to 7.00.

`COc1ccccc1C(=O)N1CC(c2nc3c(c(C)nn3C3CCCCC3)c(=O)[nH]2)C1` [Example 93, 1-cyclohexyl-6-(1-(2-methoxybenzoyl)azetidin-3-yl)-3-methyl-1H-pyrazolo[3,4-d]pyrimidin-4(5H)-one] had a pIC50 of 6.00 to 6.30.

Take `Cn1cncc1CNC(=O)N1CC(c2nc3c(cnn3C3CCCCC3)c(=O)[nH]2)C1` [Example 74, 3-(1-cyclohexyl-4-oxo-4,5-dihydro-1H-pyrazolo[3,4-d]pyrimidin-6-yl)-N-((1-methyl-1H-imidazol-5-yl)methyl)azetidine-1-carboxamide]: the pIC50 was 6.30 to 7.00.

With `CC(C)(C)n1ncc2c(=O)[nH]c(C3CN(Cc4nc5ccccc5[nH]4)C3)nc21` [Example 175, 6-(1-((1H-Benzo[d]imidazol-2-yl)methyl)azetidin-3-yl)-1-tert-butyl-1H-pyrazolo[3,4-d]pyrimidin-4(5H)-one], the pIC50 is 5.82 to 6.00.

Turning to `O=C(NCc1ccc(Cl)c(Cl)c1)N1CC(c2nc3c(cnn3C3CCCCC3)c(=O)[nH]2)C1` [Example 37, 3-(1-cyclohexyl-4-oxo-4,5-dihydro-1H-pyrazolo[3,4-d]pyrimidin-6-yl)-N-(3,4-dichlorobenzyl)azetidine-1-carboxamide], the negative-log IC50 (pIC50) is 7.00 to 9.00.

In turn, `O=C(Nc1ccc(F)c(F)c1)N1CC(c2nc3c(cnn3C3CCCCC3)c(=O)[nH]2)C1` [Example 20, 3-(1-cyclohexyl-4-oxo-4,5-dihydro-1H-pyrazolo[3,4-d]pyrimidin-6-yl)-N-(3,4-difluorophenyl)azetidine-1-carboxamide] showed a pIC50 of 7.00 to 9.00.

`Cc1nn(C2CCCCC2)c2nc(C3CCCN(C(=O)c4ccccc4Cl)C3)[nH]c(=O)c12` (centres unmarked) [Example 91, 6-(1-(2-chlorobenzoyl)piperidin-3-yl)-1-cyclohexyl-3-methyl-1H-pyrazolo[3,4-d]pyrimidin-4(5H)-one]: the pIC50 is 6.00 to 6.30.

For `Cc1nn(C2CCCCC2)c2nc(C3CN(C(=O)OC(C)(C)C)C3)[nH]c(=O)c12` [Example 123, tert-butyl 3-(1-cyclohexyl-3-methyl-4-oxo-4,5-dihydro-1H-pyrazolo[3,4-d]pyrimidin-6-yl)azetidine-1-carboxylate], the pIC50 was 6.30 to 7.00.

In the case of `COc1cccc(C(=O)N2CC(c3nc4c(c(C)nn4C4CCCCC4)c(=O)[nH]3)C2)c1` [Example 52, 1-cyclohexyl-6-(1-(3-methoxybenzoyl)azetidin-3-yl)-3-methyl-1H-pyrazolo[3,4-d]pyrimidin-4(5H)-one], the pIC50 was 6.30 to 7.00.

Turning to `O=C(Oc1ccc(F)cc1)N1CC(c2nc3c(cnn3C3CCCCC3)c(=O)[nH]2)C1` [Example 121, 4-fluorophenyl 3-(1-cyclohexyl-4-oxo-4,5-dihydro-1H-pyrazolo[3,4-d]pyrimidin-6-yl)azetidine-1-carboxylate], the pIC50 is 7.00 to 9.00.

In turn, `CC(C)c1ccc(NC(=O)N2CC(c3nc4c(cnn4C4CCCCC4)c(=O)[nH]3)C2)cc1` [Example 18, 3-(1-cyclohexyl-4-oxo-4,5-dihydro-1H-pyrazolo[3,4-d]pyrimidin-6-yl)-N-(4-isopropylphenyl)azetidine-1-carboxamide] had a pIC50 of 7.00 to 9.00.

`CCCn1nc(C)c2c(=O)[nH]c(C3CCCN(S(=O)(=O)c4ccc(OC)cc4)C3)nc21` (centres unmarked) [Example 111, 6-(1-(4-methoxyphenylsulfonyl)piperidin-3-yl)-3-methyl-1-propyl-1H-pyrazolo[3,4-d]pyrimidin-4(5H)-one] showed a pIC50 of 5.82 to 6.00.

With `O=c1[nH]c(C2CN(c3ncc(CN4CCCCCC4)s3)C2)nc2c1cnn2C1CCCCC1` [Example 138, 6-(1-(5-(azepan-1-ylmethyl)thiazol-2-yl)azetidin-3-yl)-1-cyclohexyl-1H-pyrazolo[3,4-d]pyrimidin-4(5H)-one], the pIC50 is 6.30 to 7.00.

For `O=C(NCCN1CCOCC1)N1CC(c2nc3c(cnn3C3CCCCC3)c(=O)[nH]2)C1` [Example 61, 3-(1-cyclohexyl-4-oxo-4,5-dihydro-1H-pyrazolo[3,4-d]pyrimidin-6-yl)-N-(2-morpholinoethyl)azetidine-1-carboxamide], the pIC50 was 6.30 to 7.00.

Turning to `Cc1nn(C2CCCCC2)c2nc(C3CCCN(C(=O)c4cccc(NS(C)(=O)=O)c4)C3)[nH]c(=O)c12` (centres unmarked) [Example 64, N-(3-(3-(1-cyclohexyl-3-methyl-4-oxo-4,5-dihydro-1H-pyrazolo[3,4-d]pyrimidin-6-yl)piperidine-1-carbonyl)phenyl)methanesulfonamide], the pIC50 was 6.30 to 7.00.

Molecule `CC(C)N1CCN(c2ccc(OC(=O)N3CC(c4nc5c(cnn5C(C)(C)C)c(=O)[nH]4)C3)cc2)CC1` [Example 116, 4-(4-Isopropylpiperazin-1-yl)phenyl 3-(1-tert-butyl-4-oxo-4,5-dihydro-1H-pyrazolo [3,4-d]pyrimidin-6-yl)azetidine-1-carboxylate] gave a negative logarithm of the IC50 (pIC50) of 7.00 to 9.00.

The molecule `CC(C)(C)n1ncc2c(=O)[nH]c(C3CN(C(=O)OCC4CCCCC4)C3)nc21` [Example 117, cyclohexylmethyl 3-(1-tert-butyl-4-oxo-4,5-dihydro-1H-pyrazolo[3,4-d]pyrimidin-6-yl)azetidine-1-carboxylate] showed a pIC50 of 7.00 to 9.00.

The molecule `O=c1[nH]c(C2CN(c3nc(-c4ccccc4)cs3)C2)nc2c1cnn2C1CCCCC1` [Example 159, 1-Cyclohexyl-6-(1-(4-phenylthiazol-2-yl)azetidin-3-yl)-1H-pyrazolo[3,4-d]pyrimidin-4-(5H)-one] showed a pIC50 of 7.00 to 9.00.

On to `O=c1[nH]c(C2CN(c3ccccc3)C2)nc2c1cnn2C1CCCCC1` [Example 168, 1-cyclohexyl-6-(1-phenylazetidin-3-yl)-1H-pyrazolo[3,4-d]pyrimidin-4(5H)-one], for which the pIC50 is 6.30 to 7.00.

With `Cc1nn(C2CCCCC2)c2nc(C3CCCN(C(=O)CCc4ccccc4)C3)[nH]c(=O)c12` (centres unmarked) [Example 112, 1-cyclohexyl-3-methyl-6-(1-(3-phenylpropanoyl)piperidin-3-yl)-1H-pyrazolo[3,4-d]pyrimidin-4(5H)-one], the pIC50 was 5.82 to 6.00.

`Cc1nn(-c2ccc(F)cc2)c2nc(C3CN(C(=O)Nc4ccccc4OC(F)F)C3)[nH]c(=O)c12` [Example 29, N-(2-(difluoromethoxy)phenyl)-3-(1-(4-fluorophenyl)-3-methyl-4-oxo-4,5-dihydro-1H-pyrazolo[3,4-d]pyrimidin-6-yl)azetidine-1-carboxamide] had a negative logarithm of the IC50 (pIC50) of 7.00 to 9.00.

The molecule `O=c1[nH]c(C2CN(c3nnc(-c4ccccc4)[nH]3)C2)nc2c1cnn2C1CCCCC1` [Example 158, 1-Cyclohexyl-6-(1-(5-phenyl-4H-1,2,4-triazol-3-yl)azetidin-3-yl)-1H-pyrazolo[3,4-d]pyrimidin-4-(5H)-one] gave a negative logarithm of the IC50 (pIC50) of 7.00 to 9.00.
